In ChEMBL document CHEMBL1201862, “PubChem BioAssay data set” (2004):
One block for each compound: values may come before it. The source made the active and inactive calls.

Assays:
[1] = target: Mitogen-activated protein kinase 10 (Homo sapiens, UniProt P53779); test: Dose response biochemical screening assay for inhibitors of c-Jun N-Terminal Kinase 3 (JNK3). [Related pubchem assays: 746 ]
[2] = target: NAD-dependent protein deacylase sirtuin-5, mitochondrial (Homo sapiens, UniProt Q9NXA8); test: SIRT5 desuccinylase inhibitors, dose response, biochemical, fluorescence imaging, cherry-pick, set 5 (AID 720591);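 also: desuccinylation of succinyl peptide AMC substrate read as fluorescence after trypsin release; potency of inhibitors that lower fluorescence and may act on trypsin instead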
[3] = target: Peroxisome proliferator-activated receptor gamma/Nuclear receptor coactivator 3 (Homo sapiens, UniProt P37231); format: functional;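 also: agonist potency for raising coactivator recruitment to the receptor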
[4] = target: Peroxisome proliferator-activated receptor gamma/Nuclear receptor coactivator 2 (Homo sapiens, UniProt P37231); format: functional;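 also: agonist potency for raising coactivator recruitment to the receptor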
[5] = target: Peroxisome proliferator-activated receptor gamma/Nuclear receptor coactivator 1 (Homo sapiens, UniProt P37231); format: functional;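 also: agonist potency as compounds enhance coactivator SRC-1 recruitment to PPARgamma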
[6] = cytotoxicity in HPDE-C7 cells, cell-based, fluorescence, HTS (AID 430); format: functional; conditions: Homo sapiens
[7] = cytotoxicity in KRAS-transformed pancreatic duct cells, primary screen, cell-based, fluorescence, HTS (AID 431); format: functional; conditions: Homo sapiens;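 also: cell line used: HPDE-C7K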
[8] = target: T1, COUP transcription factor 2 (Homo sapiens, UniProt P24468); test: Luminescence-based cell-based high throughput dose response assay to identify inhibitors of COUP-TFII (NR2F2).; format: functional;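 also: HEK293 cells transiently cotransfected with COUP-TFII expression vector and reporter; luciferase reporter luminescence driven by COUP-TFII from the pX2-168 reporter plasmid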
T1 sequence (P24468 whole entry): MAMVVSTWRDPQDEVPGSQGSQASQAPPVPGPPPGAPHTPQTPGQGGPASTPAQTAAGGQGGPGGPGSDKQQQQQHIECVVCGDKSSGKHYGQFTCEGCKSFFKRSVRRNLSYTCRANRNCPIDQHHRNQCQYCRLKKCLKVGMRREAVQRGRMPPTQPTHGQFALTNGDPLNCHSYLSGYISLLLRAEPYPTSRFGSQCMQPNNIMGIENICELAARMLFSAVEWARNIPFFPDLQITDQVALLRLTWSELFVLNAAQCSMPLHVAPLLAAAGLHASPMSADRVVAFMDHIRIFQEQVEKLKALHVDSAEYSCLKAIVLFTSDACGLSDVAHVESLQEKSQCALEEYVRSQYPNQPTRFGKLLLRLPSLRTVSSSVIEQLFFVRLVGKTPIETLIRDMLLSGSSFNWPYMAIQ

[9] = HepG2 cell cytotoxicity, dose response, cytotoxicity control for Shn3 inhibitor project, CellTiter-Glo, cherry-picked (AID 624134); format: functional, cell-based
[10] = control 3'UTR Renilla luciferase suppression, dose response, counter-screen for Shn3 inhibitor project, cell-based, Clone20-Shn3RL, cherry-picked (AID 624133); format: functional
[11] = Shn3 3'UTR reporter inhibitors, dose response, cell-based, Clone20 osteoblasts, firefly luciferase, cherry-picked (AID 624132); format: functional;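 also: firefly luciferase luminescence from reporter carrying the Shn3 3'UTR in osteoblasts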
[12] = target: T2, Aryl hydrocarbon receptor (Homo sapiens, UniProt P35869); test: Luminescence-based cell-based high throughput dose response assay for activators of the Aryl Hydrocarbon Receptor (AHR). [Related pubchem assays: 2796 (Primary screen (AHR activators in singlicate)), 2845 (Confirmation screen (AHR activators in triplicate)), 434939 (Counterscreen (PXR activators in triplicate)), 2804 (Summary (AHR activators))]; format: ADME
T2 sequence (P35869 whole entry): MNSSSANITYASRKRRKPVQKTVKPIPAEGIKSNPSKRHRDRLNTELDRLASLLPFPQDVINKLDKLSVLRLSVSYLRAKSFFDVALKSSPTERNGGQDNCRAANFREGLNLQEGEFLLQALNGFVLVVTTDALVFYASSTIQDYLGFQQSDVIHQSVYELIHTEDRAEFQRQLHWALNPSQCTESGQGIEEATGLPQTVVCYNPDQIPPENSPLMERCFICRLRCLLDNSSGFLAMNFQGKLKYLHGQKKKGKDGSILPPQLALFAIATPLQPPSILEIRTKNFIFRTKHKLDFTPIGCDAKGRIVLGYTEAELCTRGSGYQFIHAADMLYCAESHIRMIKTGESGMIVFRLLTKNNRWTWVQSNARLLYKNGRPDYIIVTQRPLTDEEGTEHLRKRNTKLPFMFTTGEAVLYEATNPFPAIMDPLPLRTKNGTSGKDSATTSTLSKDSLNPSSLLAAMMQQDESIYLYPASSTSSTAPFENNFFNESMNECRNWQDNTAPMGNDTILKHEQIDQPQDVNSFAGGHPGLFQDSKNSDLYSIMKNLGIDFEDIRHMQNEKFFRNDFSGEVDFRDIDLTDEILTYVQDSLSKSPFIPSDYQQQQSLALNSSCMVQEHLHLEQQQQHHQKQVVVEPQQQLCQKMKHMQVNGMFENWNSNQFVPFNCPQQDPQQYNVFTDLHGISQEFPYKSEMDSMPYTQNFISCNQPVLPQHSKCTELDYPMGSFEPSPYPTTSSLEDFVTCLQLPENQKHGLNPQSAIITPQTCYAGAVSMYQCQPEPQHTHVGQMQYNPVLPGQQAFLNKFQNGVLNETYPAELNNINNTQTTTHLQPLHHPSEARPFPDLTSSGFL

[13] = target: Voltage-dependent T-type calcium channel subunit alpha-1H (Homo sapiens, UniProt O95180); format: functional;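 also: channel activity triggered by adding a high calcium stimulation buffer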
Caspase-6 = target: T3, Caspase-6 (Homo sapiens, UniProt P55212); test: human caspase-6 inhibitors, dose response, biochemical, VEID-R110 fluorescence, cherry-pick (AID 720632)
T3 sequence (P55212 whole entry): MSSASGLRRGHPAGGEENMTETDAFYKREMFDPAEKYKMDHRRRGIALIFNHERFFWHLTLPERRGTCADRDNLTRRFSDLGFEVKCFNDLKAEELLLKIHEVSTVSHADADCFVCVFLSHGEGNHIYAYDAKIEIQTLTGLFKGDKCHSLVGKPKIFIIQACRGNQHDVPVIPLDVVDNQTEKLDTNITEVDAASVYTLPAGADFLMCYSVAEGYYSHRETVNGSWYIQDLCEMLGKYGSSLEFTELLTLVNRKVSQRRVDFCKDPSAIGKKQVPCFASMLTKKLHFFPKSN

HT-1080 = test: cytotoxicity in HT1080 fibrosarcoma cells, cell-based, fluorescence readout (AID 620); format: functional; conditions: Homo sapiens
[14] = target: Luciferin 4-monooxygenase (Photinus pyralis, UniProt P08659); test: Counter Screen for Luciferase-based Assay Positives. [Related pubchem assays: 620, 618, 411 ]

Chain of Mitogen-activated protein kinase 10 (P53779 whole entry): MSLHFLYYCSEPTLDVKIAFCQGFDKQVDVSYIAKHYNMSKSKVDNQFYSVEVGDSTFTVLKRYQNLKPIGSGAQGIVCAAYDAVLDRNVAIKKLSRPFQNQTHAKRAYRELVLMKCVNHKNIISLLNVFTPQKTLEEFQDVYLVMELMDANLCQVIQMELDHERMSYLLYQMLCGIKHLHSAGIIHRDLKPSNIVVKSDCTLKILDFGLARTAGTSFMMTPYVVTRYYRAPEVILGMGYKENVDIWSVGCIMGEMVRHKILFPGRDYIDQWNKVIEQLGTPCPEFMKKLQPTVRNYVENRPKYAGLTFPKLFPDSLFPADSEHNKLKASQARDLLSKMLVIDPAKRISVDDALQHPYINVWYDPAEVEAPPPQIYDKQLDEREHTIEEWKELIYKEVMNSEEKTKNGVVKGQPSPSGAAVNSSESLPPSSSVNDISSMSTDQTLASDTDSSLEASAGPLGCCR
Chain of Voltage-dependent T-type calcium channel subunit alpha-1H (O95180 whole entry): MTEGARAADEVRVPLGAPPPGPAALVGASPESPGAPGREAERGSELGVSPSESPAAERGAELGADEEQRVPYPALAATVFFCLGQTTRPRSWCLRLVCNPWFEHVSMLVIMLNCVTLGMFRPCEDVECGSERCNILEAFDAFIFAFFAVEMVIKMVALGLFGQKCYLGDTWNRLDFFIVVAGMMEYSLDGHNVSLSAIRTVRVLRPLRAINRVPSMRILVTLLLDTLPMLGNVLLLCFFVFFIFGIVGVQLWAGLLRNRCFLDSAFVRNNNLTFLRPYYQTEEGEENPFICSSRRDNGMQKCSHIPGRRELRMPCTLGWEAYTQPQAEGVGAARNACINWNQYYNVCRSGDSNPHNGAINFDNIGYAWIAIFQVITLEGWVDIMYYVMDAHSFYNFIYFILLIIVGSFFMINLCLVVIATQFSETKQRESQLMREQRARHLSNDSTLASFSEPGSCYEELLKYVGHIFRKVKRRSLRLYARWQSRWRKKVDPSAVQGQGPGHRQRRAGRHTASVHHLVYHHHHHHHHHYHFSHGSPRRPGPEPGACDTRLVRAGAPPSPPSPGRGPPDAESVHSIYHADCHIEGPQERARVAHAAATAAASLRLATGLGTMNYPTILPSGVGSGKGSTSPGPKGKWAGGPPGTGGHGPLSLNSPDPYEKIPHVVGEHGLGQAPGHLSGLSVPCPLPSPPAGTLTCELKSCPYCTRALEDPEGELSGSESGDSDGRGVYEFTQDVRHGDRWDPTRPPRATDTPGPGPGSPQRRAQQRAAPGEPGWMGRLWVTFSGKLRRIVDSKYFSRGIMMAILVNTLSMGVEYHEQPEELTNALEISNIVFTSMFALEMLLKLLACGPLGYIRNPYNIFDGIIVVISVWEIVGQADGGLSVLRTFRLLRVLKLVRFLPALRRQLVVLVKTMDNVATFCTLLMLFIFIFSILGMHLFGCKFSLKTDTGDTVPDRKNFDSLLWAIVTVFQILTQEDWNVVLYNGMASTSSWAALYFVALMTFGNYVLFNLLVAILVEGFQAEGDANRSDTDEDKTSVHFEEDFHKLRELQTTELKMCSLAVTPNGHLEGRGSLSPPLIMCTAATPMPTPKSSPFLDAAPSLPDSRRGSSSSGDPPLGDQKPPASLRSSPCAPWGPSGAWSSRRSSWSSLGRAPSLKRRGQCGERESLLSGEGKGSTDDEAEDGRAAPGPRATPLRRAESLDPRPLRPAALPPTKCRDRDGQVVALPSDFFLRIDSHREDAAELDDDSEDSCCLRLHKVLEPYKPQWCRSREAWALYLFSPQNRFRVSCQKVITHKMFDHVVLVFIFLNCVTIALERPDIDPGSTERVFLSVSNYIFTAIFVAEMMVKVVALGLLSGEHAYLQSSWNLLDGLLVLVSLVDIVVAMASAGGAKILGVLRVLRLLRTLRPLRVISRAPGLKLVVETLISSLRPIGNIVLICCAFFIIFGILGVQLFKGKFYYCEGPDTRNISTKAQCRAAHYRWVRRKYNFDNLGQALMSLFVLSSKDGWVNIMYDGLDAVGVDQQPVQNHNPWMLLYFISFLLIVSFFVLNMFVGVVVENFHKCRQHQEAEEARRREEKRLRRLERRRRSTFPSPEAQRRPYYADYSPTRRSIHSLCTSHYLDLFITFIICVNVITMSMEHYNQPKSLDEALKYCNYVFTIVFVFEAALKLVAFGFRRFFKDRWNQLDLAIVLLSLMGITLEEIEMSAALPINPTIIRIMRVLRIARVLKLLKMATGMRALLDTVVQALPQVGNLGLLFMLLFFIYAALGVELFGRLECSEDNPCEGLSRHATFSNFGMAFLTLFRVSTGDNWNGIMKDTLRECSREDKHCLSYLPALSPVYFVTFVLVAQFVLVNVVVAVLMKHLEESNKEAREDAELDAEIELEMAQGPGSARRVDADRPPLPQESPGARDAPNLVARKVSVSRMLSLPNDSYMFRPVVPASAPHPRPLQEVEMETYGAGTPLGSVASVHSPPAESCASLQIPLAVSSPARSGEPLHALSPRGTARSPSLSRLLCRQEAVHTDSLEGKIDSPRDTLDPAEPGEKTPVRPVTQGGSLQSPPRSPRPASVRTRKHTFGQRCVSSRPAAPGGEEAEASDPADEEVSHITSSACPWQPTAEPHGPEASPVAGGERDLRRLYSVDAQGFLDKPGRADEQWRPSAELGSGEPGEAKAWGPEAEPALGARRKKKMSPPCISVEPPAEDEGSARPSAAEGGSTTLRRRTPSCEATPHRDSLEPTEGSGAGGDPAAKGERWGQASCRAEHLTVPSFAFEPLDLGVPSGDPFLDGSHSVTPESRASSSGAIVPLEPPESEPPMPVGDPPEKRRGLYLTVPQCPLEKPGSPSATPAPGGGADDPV
Chain of Peroxisome proliferator-activated receptor gamma/Nuclear receptor coactivator 3 (P37231 whole entry): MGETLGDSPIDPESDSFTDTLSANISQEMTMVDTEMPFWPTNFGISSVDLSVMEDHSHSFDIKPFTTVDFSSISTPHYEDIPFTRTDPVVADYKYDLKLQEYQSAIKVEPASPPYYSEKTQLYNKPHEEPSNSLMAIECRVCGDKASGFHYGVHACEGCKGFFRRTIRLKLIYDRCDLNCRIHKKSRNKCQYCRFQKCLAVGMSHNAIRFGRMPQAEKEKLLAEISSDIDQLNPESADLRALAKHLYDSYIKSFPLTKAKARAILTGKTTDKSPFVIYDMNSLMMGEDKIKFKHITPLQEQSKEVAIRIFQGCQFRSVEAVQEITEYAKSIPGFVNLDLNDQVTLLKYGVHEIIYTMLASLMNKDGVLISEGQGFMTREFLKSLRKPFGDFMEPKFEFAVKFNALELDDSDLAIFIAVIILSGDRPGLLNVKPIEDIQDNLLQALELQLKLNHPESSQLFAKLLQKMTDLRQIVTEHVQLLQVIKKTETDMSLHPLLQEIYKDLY
Chain of Peroxisome proliferator-activated receptor gamma/Nuclear receptor coactivator 3 (Q9Y6Q9 whole entry, further chain): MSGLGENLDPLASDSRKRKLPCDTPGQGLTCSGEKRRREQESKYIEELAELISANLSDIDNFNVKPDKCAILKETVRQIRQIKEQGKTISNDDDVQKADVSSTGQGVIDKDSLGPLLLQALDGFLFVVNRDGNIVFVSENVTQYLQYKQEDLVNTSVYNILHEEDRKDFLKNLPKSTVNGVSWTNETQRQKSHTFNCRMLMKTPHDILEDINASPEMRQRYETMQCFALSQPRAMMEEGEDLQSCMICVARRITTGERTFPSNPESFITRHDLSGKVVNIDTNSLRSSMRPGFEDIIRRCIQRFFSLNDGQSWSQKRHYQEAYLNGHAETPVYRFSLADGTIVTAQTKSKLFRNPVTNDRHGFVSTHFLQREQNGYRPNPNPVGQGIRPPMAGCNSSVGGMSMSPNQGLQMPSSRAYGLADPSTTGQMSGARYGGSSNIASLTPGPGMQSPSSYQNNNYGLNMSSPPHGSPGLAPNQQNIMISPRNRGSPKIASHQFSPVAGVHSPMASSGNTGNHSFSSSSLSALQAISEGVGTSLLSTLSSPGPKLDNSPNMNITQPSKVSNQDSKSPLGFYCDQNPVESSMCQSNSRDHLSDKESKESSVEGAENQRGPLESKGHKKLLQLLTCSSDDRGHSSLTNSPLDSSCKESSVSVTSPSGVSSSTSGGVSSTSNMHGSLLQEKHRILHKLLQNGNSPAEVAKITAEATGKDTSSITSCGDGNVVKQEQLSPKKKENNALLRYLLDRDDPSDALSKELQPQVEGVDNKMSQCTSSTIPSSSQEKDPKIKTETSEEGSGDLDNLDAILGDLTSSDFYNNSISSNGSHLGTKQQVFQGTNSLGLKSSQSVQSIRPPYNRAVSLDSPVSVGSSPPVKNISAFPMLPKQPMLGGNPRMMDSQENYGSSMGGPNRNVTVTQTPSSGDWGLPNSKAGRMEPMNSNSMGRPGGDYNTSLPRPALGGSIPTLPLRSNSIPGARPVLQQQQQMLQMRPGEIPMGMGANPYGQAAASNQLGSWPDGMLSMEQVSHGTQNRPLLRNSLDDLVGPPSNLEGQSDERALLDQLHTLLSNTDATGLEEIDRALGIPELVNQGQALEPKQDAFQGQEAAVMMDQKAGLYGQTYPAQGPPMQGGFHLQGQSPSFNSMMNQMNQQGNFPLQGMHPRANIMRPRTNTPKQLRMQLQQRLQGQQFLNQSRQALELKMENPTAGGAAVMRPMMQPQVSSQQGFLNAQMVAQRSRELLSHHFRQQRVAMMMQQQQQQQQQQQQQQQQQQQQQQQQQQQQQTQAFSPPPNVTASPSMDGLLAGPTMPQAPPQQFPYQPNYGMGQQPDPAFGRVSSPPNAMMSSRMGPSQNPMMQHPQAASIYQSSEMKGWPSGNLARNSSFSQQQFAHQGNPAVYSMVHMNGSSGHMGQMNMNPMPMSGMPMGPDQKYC
Chain of NAD-dependent protein deacylase sirtuin-5, mitochondrial (Q9NXA8 whole entry): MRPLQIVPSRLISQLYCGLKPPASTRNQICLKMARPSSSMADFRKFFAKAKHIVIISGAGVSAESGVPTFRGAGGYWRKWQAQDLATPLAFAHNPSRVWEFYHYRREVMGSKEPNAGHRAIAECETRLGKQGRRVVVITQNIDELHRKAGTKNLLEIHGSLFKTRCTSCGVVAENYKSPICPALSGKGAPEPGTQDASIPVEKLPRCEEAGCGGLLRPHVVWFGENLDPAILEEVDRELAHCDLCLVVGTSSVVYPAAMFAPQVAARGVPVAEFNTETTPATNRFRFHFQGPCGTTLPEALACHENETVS

IC50 [1]: 24.7 µM (not active)
Compound: COc1ccc(CC(=O)Nc2nc3ccccc3s2)cc1S(=O)(=O)N1CCOCC1

AC50 [2]: 24.2 µM (active)
Compound: COc1ccc(CC(=O)NC(C)c2nnc(SCCOc3ccc(OC)cc3)n2C)cc1 (stereo unspecified)

EC50 [3]: > 79.4 µM (not active)
EC50 [4]: > 79.4 µM (not active)
EC50 [5]: > 79.4 µM (not active)
Compound: O=C(O)CCCC(=O)Nc1cc([N+](=O)[O-])ccc1O

Compound: COc1cccc(-c2nn(C)c3sc(C(=O)N4CCN(c5ccccn5)CC4)cc23)c1
EC50 [6]: 15.2 µM (active)
EC50 [7]: 14 µM (active)

Compound: Cc1cc(/C=C2/SC(=S)N(c3cccc(Cl)c3)C2=O)c(C)n1-c1cccnc1
IC50 [8]: 5.65 µM (active)
AC50 [9]: 47.8 µM (active)
AC50 [10]: 3.55 µM (active)
AC50 [11]: 0.979 µM (active)

IC50 [1]: 32.2 µM (not active)
Compound: CC(=O)Nc1ccc(S(=O)(=O)N2CCC(n3cnc4cc(F)ccc43)CC2)cc1

EC50 [12]: > 91.6 µM (not active)
Compound: CC(/C=C/c1cccc([N+](=O)[O-])c1)=N/NC(=O)c1cccnc1

Compound: O=C(Nc1ncc(Br)s1)C(Cc1ccccc1)n1cccc1 (stereo unspecified)
EC50 [13]: 1.33 µM (active)
EC50 [6]: 11.9 µM (active)
EC50 [7]: 13.2 µM (active)

AC50 (Caspase-6): 50.4 µM (active)
Compound: O=C(c1ccncc1)N1CCCCN2[C@H](C1)[C@H](c1ccc(C#Cc3ccccn3)cc1)[C@@H]2CO

EC50 [12]: 12.3 µM (not active)
Compound: Oc1oc(-c2ccccc2)nc1/C=N/c1nccs1

Compound: Cc1ccc(-c2nc3cc(N)ccc3o2)c(C)c1
EC50 (HT-1080): > 50 µM (not active)
EC50 [14]: 1.95 µM (active)

EC50 [12]: 1.54 µM (active)
Compound: Cc1csc(SCC(=O)Nc2ccc(Cl)cn2)n1
